Assay results reported in ChEMBL document CHEMBL3045331, “A clubbed quinazolinone and 4-thiazolidinone as potential antimicrobial agents” (2012).
≈ marks a conversion by molar mass, not a printed value.

Experiments:
Assay type in all cases: functional
[1] = system: Streptococcus pyogenes; assay: Antibacterial activity against Streptococcus pyogenes MTCC-442 after 24 hr by serial broth dilution method; settings: MTCC-442, 24 h
[2] = system: Staphylococcus aureus; assay: Antibacterial activity against Staphylococcus aureus MTCC-96 after 24 hr by serial broth dilution method; settings: MTCC-96, 24 h
[3] = system: Escherichia coli; assay: Antibacterial activity against Escherichia coli MTCC 443 after 24 hr by serial broth dilution method; settings: MTCC 443, 24 h
[4] = system: Pseudomonas aeruginosa; assay: Antibacterial activity against Pseudomonas aeruginosa MTCC-1688 after 24 hr by serial broth dilution method; settings: MTCC-1688, 24 h
[5] = system: Aspergillus clavatus; assay: Antifungal activity against Aspergillus clavatus MTCC 1323 after 48 hr by spot subculture method; settings: MTCC 1323, 48 h
[6] = system: Aspergillus niger; assay: Antifungal activity against Aspergillus niger MTCC 282 after 48 hr by spot subculture method; settings: MTCC 282, 48 h
[7] = system: Candida albicans; assay: Antifungal activity against Candida albicans MTCC 227 after 48 hr by spot subculture method; settings: MTCC 227, 48 h

| SMILES | MIC99 [1] [µg/mL] | MIC99 [2] [µg/mL] | MIC99 [3] [µg/mL] | MIC99 [4] [µg/mL] | MIC99 [5] [µg/mL] | MIC99 [6] [µg/mL] | MIC99 [7] [µg/mL] |
| --- | --- | --- | --- | --- | --- | --- | --- |
| Cc1ccc(-c2nc3ccccc3c(=O)n2-c2ccc(C(=O)NN3C(=O)/C(=C/c4ccc(O)cc4)SC3c3ccc(O)cc3)cc2)cc1 (stereo not given) | 50 (≈ 76.6 µM) | 100 (≈ 153 µM) | 100 (≈ 153 µM) | 500 (≈ 766 µM) | 100 (≈ 153 µM) | 1000 (≈ 1530 µM) | 1000 (≈ 1530 µM) |
| COC1=CC(=O)C[C@@H](C)[C@]12Oc1c(Cl)c(OC)cc(OC)c1C2=O [GRISEOFULVIN] |  |  |  |  | 100 (≈ 283 µM) | 100 (≈ 283 µM) | 500 (≈ 1420 µM) |
| COc1cc(/C=C2\SC(c3ccc(O)cc3)N(NC(=O)c3ccc(-n4c(-c5ccc(C)cc5)nc5ccccc5c4=O)cc3)C2=O)cc(OC)c1OC (stereo not given) | 200 (≈ 275 µM) | 100 (≈ 138 µM) | 100 (≈ 138 µM) | 100 (≈ 138 µM) | 1000 (≈ 1380 µM) | 100 (≈ 138 µM) | 1000 (≈ 1380 µM) |
| Cc1ccc(-c2nc3ccccc3c(=O)n2-c2ccc(C(=O)NN3C(=O)/C(=C/c4ccccc4Cl)SC3c3ccc(O)cc3)cc2)cc1 (stereo not given) | 100 (≈ 149 µM) | 500 (≈ 745 µM) | 200 (≈ 298 µM) | 500 (≈ 745 µM) | 1000 (≈ 1490 µM) | 1000 (≈ 1490 µM) | 1000 (≈ 1490 µM) |
| Cc1ccc(-c2nc3ccccc3c(=O)n2-c2ccc(C(=O)NN3C(=O)/C(=C/c4cc(Br)ccc4O)SC3c3ccc(O)cc3)cc2)cc1 (stereo not given) | 100 (≈ 137 µM) | 250 (≈ 342 µM) | 500 (≈ 683 µM) | 500 (≈ 683 µM) | 100 (≈ 137 µM) | 1000 (≈ 1370 µM) | 500 (≈ 683 µM) |
| Cc1ccc(-c2nc3ccccc3c(=O)n2-c2ccc(C(=O)NN3C(=O)/C(=C/c4ccccc4)SC3c3ccc(O)cc3)cc2)cc1 (stereo not given) | 100 (≈ 157 µM) | 500 (≈ 785 µM) | 200 (≈ 314 µM) | 500 (≈ 785 µM) | 1000 (≈ 1570 µM) | 1000 (≈ 1570 µM) | 500 (≈ 785 µM) |
| COc1ccc(/C=C2\SC(c3ccc(O)cc3)N(NC(=O)c3ccc(-n4c(-c5ccc(C)cc5)nc5ccccc5c4=O)cc3)C2=O)c(O)c1 (stereo not given) | 500 (≈ 732 µM) | 250 (≈ 366 µM) | 100 (≈ 146 µM) | 200 (≈ 293 µM) | 500 (≈ 732 µM) | 1000 (≈ 1460 µM) | 500 (≈ 732 µM) |
| COc1ccc(/C=C2\SC(c3ccc(O)cc3)N(NC(=O)c3ccc(-n4c(-c5ccc(C)cc5)nc5ccccc5c4=O)cc3)C2=O)cc1 (stereo not given) | 500 (≈ 750 µM) | 500 (≈ 750 µM) | 100 (≈ 150 µM) | 500 (≈ 750 µM) | 100 (≈ 150 µM) | 100 (≈ 150 µM) | 1000 (≈ 1500 µM) |
| Cc1ccc(-c2nc3ccccc3c(=O)n2-c2ccc(C(=O)NN3C(=O)/C(=C/c4ccc5ccccc5c4O)SC3c3ccc(O)cc3)cc2)cc1 (stereo not given) | 100 (≈ 142 µM) | 100 (≈ 142 µM) | 100 (≈ 142 µM) | 50 (≈ 71.1 µM) | 100 (≈ 142 µM) | 1000 (≈ 1420 µM) | 100 (≈ 142 µM) |
| Cc1ccc(-c2nc3ccccc3c(=O)n2-c2ccc(C(=O)NN3C(=O)/C(=C/c4ccc(Cl)cc4)SC3c3ccc(O)cc3)cc2)cc1 (stereo not given) | 500 (≈ 745 µM) | 500 (≈ 745 µM) | 50 (≈ 74.5 µM) | 100 (≈ 149 µM) | 1000 (≈ 1490 µM) | 1000 (≈ 1490 µM) | 100 (≈ 149 µM) |
| COc1ccccc1/C=C1\SC(c2ccc(O)cc2)N(NC(=O)c2ccc(-n3c(-c4ccc(C)cc4)nc4ccccc4c3=O)cc2)C1=O (stereo not given) | 500 (≈ 750 µM) | 100 (≈ 150 µM) | 500 (≈ 750 µM) | 100 (≈ 150 µM) | 500 (≈ 750 µM) | 500 (≈ 750 µM) | 500 (≈ 750 µM) |
| Cc1ccc(-c2nc3ccccc3c(=O)n2-c2ccc(C(=O)NN3C(=O)/C(=C/c4ccc(N(C)C)cc4)SC3c3ccc(O)cc3)cc2)cc1 (stereo not given) | 100 (≈ 147 µM) | 1000 (≈ 1470 µM) | 25 (≈ 36.8 µM) | 200 (≈ 294 µM) | 500 (≈ 736 µM) | 100 (≈ 147 µM) | 1000 (≈ 1470 µM) |
| Cc1ccc(-c2nc3ccccc3c(=O)n2-c2ccc(C(=O)NN3C(=O)/C(=C/c4c(Cl)cccc4Cl)SC3c3ccc(O)cc3)cc2)cc1 (stereo not given) | 100 (≈ 142 µM) | 100 (≈ 142 µM) | 50 (≈ 70.9 µM) | 200 (≈ 283 µM) | 1000 (≈ 1420 µM) | 100 (≈ 142 µM) | 500 (≈ 709 µM) |
| Cc1ccc(-c2nc3ccccc3c(=O)n2-c2ccc(C(=O)NN3C(=O)/C(=C/c4cccc([N+](=O)[O-])c4)SC3c3ccc(O)cc3)cc2)cc1 (stereo not given) | 500 (≈ 733 µM) | 50 (≈ 73.3 µM) | 25 (≈ 36.7 µM) | 100 (≈ 147 µM) | 500 (≈ 733 µM) | 100 (≈ 147 µM) | 100 (≈ 147 µM) |
| Cc1ccc(-c2nc3ccccc3c(=O)n2-c2ccc(C(=O)NN3C(=O)/C(=C/c4ccc(F)cc4)SC3c3ccc(O)cc3)cc2)cc1 (stereo not given) | 250 (≈ 382 µM) | 100 (≈ 153 µM) | 500 (≈ 764 µM) | 50 (≈ 76.4 µM) | 1000 (≈ 1530 µM) | 500 (≈ 764 µM) | 100 (≈ 153 µM) |
| CC1(C)S[C@@H]2[C@H](NC(=O)[C@H](N)c3ccccc3)C(=O)N2[C@H]1C(=O)O [AMPICILLIN] | 100 (≈ 286 µM) | 250 (≈ 715 µM) | 100 (≈ 286 µM) | 100 (≈ 286 µM) |  |  |  |
